*1 amine or outer side, *2 acyl side, *3 side chain or, on linkers, in order; H or OH if unused. Where a SMILES comes first, the peptide text is derived from it. [ ]: non-standard residue; d: D form. The star is where a group is joined. LeuΨ(S-CHOHCH2)Ala = CC(C)C[C@H](N[*:1])[C@@H](O)C[C@@H](C)C(=O)[*:2]; Hyp = O=C(O)[C@@H]1C[C@@H](O)CN1; Nva = CCC[C@H](N)C(=O)O; Bn = c1ccc(C*)cc1
Key:
Renin = molecular target: T1, Renin (Homo sapiens, UniProt P00797); assay: Inhibition of renin
T1 sequence (P00797 whole entry): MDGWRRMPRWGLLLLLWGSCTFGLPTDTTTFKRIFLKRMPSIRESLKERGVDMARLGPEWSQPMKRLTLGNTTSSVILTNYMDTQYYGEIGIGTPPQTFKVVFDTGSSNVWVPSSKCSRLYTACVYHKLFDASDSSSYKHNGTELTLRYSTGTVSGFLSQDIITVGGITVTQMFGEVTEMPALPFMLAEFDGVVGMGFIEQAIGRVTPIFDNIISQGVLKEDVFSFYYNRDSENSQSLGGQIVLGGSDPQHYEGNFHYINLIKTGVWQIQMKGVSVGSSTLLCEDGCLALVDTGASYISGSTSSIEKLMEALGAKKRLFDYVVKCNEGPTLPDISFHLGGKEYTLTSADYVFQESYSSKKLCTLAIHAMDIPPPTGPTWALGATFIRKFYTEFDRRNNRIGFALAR

[1] = Inhibition of HDAC by fluorimetry assay
Beta-secretase 1 = Beta-secretase 1 (Homo sapiens, UniProt P56817); assay: Inhibition of BACE1
Sequence of Beta-secretase 1 (P56817 whole entry): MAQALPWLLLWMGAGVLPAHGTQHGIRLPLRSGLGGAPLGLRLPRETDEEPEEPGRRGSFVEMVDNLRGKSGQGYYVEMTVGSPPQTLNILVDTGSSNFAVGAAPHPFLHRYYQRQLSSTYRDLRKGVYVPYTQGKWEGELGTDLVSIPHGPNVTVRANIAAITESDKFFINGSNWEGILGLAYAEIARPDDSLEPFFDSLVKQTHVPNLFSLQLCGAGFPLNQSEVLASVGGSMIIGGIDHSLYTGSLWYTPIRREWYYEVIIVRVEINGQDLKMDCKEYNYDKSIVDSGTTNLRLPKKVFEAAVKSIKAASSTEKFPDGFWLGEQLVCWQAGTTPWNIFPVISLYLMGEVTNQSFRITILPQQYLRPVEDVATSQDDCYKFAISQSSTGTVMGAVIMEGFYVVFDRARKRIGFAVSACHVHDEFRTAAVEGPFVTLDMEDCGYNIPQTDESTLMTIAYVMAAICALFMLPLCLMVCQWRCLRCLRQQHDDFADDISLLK

[2] = Inhibition of FTase
[3] = molecular target: Ras-related protein Rap-1A (Homo sapiens, UniProt P62834); assay: Inhibition of Rap1a
Sequence of Ras-related protein Rap-1A (P62834 whole entry): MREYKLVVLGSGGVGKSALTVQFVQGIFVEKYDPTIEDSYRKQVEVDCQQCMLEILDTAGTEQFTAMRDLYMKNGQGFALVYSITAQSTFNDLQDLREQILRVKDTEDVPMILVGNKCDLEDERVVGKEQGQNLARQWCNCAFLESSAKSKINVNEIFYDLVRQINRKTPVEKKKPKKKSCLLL

[4] = Half life in dog; format: ADME, organism-based, Canis lupus familiaris; settings: in vivo
GTPase KRas = GTPase KRas (Homo sapiens, UniProt P01116); assay: Inhibition of Ki-Ras
Sequence of GTPase KRas (P01116 whole entry): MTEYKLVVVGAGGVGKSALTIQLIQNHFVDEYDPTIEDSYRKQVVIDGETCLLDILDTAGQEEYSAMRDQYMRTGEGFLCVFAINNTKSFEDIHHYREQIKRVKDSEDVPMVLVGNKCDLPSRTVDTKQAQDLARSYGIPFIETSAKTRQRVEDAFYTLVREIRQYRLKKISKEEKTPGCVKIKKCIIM

[5] = Inhibition of GGTase
[6] = molecular target: DnaJ homolog subfamily A member 1 (Homo sapiens, UniProt P31689); assay: Inhibition of HDJ2
Sequence of DnaJ homolog subfamily A member 1 (P31689 whole entry): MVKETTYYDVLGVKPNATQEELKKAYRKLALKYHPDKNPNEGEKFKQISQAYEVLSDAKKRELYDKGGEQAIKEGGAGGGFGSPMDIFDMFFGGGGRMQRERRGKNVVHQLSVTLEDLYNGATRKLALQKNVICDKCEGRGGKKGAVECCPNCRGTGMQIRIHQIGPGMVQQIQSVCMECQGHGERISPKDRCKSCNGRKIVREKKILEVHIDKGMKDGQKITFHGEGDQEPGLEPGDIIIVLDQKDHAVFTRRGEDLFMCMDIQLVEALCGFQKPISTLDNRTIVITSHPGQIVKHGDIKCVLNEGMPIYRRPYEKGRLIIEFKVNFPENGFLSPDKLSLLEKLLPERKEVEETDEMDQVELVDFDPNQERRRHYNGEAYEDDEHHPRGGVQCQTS

[7] = Inhibition of HCV NS3 protease; parameters: species or system Hepacivirus hominis
[8] = Inhibition of HIV protease; parameters: species or system Human immunodeficiency virus
Hepatitis C virus [9] = assay: microbe, parasite or virus in culture
Description: Antiviral activity against HCV by cell based replicon assay

Neprilysin = Neprilysin (Homo sapiens, UniProt P08473); assay: Inhibition of neutral endopeptidase
Sequence of Neprilysin (P08473 whole entry): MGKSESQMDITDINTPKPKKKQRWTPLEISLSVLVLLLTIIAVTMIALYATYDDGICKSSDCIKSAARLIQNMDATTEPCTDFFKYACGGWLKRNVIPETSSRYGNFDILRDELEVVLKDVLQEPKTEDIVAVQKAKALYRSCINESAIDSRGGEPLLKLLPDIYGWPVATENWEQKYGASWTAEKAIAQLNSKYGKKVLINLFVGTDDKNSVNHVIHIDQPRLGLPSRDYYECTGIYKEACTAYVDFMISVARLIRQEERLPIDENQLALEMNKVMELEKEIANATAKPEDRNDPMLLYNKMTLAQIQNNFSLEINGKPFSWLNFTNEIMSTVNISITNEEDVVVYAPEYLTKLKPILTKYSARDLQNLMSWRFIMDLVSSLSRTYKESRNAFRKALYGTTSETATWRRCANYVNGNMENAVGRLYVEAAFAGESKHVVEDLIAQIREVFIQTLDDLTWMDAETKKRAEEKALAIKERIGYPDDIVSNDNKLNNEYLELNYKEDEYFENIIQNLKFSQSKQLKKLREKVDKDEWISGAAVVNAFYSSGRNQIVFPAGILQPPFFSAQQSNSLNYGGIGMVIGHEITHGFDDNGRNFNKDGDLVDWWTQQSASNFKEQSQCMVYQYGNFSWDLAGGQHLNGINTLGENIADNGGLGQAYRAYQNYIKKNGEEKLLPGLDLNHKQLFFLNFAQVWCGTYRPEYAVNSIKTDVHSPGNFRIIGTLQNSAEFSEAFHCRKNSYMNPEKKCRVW

[10] = Selectivity ratio of IC50 for tPa to IC50 for thrombin
[11] = Selectivity ratio of IC50 for trypsin to IC50 for thrombin
MCF7 = assay: cells; settings: Homo sapiens
Description: Antiproliferative activity against human MCF7 cells

[12] = Oral bioavailability in rat; format: ADME, organism-based; settings: in vivo
[13] = molecular target: Growth hormone secretagogue receptor type 1 (Homo sapiens, UniProt Q92847); assay: Agonist activity at ghrelin receptor; format: functional
Sequence of Growth hormone secretagogue receptor type 1 (Q92847 whole entry): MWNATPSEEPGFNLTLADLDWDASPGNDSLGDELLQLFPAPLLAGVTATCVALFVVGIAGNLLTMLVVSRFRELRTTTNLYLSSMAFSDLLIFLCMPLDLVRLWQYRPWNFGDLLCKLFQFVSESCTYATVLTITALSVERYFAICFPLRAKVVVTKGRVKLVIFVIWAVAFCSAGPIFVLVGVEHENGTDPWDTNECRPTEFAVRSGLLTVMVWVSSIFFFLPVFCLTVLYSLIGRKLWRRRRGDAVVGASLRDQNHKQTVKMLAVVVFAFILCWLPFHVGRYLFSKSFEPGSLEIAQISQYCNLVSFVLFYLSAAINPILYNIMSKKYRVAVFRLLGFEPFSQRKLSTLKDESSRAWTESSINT

Prothrombin = Prothrombin (Homo sapiens, UniProt P00734); assay: Inhibition of thrombin
[14] = molecular target: Sonic hedgehog protein (Mus musculus) (UniProt Q62226); assay: Inhibition of sonic hedgehog pathway in mouse NIH-3T3 cells relative to control; format: cell-based; settings: NIH3T3
[15] = molecular target: Angiotensin-converting enzyme (Homo sapiens, UniProt P12821); assay: Inhibition of ACE
Sequence of Angiotensin-converting enzyme (P12821 whole entry): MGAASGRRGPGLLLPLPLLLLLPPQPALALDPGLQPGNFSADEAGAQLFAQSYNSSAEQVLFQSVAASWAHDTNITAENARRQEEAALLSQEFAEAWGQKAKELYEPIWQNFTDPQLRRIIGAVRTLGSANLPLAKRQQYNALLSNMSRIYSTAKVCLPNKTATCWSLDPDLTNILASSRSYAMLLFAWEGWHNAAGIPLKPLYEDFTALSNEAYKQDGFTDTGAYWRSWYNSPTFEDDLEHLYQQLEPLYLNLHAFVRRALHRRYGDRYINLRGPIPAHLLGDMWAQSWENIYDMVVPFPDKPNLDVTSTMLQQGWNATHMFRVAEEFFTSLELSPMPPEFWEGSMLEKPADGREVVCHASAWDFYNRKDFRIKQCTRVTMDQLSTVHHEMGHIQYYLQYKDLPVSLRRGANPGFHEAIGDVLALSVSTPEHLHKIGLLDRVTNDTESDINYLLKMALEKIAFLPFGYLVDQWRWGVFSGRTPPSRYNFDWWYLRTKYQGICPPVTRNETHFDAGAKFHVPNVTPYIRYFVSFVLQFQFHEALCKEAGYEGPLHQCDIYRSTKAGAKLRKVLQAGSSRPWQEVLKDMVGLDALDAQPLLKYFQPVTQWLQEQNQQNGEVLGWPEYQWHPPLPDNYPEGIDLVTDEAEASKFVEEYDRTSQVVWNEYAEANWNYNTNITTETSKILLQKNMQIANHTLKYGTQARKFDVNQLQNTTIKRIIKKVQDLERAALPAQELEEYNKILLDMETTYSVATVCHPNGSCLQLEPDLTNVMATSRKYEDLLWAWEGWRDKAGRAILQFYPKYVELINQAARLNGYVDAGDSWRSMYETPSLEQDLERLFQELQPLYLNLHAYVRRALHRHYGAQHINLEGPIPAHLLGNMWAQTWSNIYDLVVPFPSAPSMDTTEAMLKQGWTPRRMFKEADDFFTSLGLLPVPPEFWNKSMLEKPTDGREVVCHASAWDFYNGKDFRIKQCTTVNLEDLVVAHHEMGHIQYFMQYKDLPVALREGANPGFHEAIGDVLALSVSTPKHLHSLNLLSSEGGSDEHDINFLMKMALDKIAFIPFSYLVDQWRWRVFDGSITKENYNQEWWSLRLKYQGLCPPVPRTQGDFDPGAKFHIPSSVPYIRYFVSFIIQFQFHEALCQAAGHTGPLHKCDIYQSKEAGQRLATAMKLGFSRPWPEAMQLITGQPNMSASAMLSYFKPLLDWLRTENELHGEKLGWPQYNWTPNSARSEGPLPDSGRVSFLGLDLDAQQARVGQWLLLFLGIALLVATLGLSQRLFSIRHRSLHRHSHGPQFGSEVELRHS

Hepatitis C virus [16] = assay: Inhibition of HCV 1b NS3 protease; parameters: species or system Hepatitis C virus subtype 1b
[17] = Inhibition of HCV 1a NS3 protease; parameters: species or system Hepatitis C virus subtype 1a

CC(C)(C)C(=O)NCCOC(=O)N[C@@H](Cc1ccccc1)C(=O)N[C@H]1CCC(=O)NCCOC(=O)[C@H](O)[C@H](CC2CCCCC2)NC1=O
IC50 (Renin): 56 nM

O=C(CCCCCC1C2=NC(Cc3ccccc3)=C(O2)C(Cc2ccccc2)CCn2cc(nn2)CCCN1Cc1ccccc1)NO (stereo unspecified)
IC50 [1]: 4300 nM

CC(C)C[C@H](NC(=O)[C@H](CC(N)=O)NC(=O)[C@H](C)NC(=O)[C@@H](N)CCC(=O)O)[C@@H](O)C[C@@H](C)C(=O)N[C@@H](C)C(=O)N[C@@H](CCC(=O)O)C(=O)N[C@@H](Cc1ccccc1)C(=O)O (H-EAN[LeuΨ(S-CHOHCH2)Ala]AEF-OH)
IC50 (Beta-secretase 1): 1.6 nM

N#Cc1ccc2cc1Oc1ccc3cccc(c3c1)N1CCN(CC1=O)Cc1cncn1C2
IC50 [2]: 0.1 nM | EC50 [3]: > 10000 nM | half-life [4]: 1 h | EC50 (GTPase KRas): > 10000 nM | IC50 [5]: 301 nM | EC50 [6]: 2 nM

N#Cc1ccc2cc1Oc1ccc(CCC3CCCCC3)c(c1)CN1CCN(CC1=O)Cc1cncn1C2
IC50 [2]: 1.6 nM | EC50 [3]: 140 nM | EC50 (GTPase KRas): 1060 nM | IC50 [5]: 1.7 nM | EC50 [6]: 12 nM

C=C[C@@H]1C[C@]1(NC(=O)[C@@H]1C[C@@H](Oc2cc(-c3ccccc3)nc3cc(OC)ccc23)CN1C(=O)[C@@H](NC(=O)[C@@H](NC(C)=O)C1CCCCC1)C(C)(C)C)C(=O)O
IC50 [7]: 1 nM

CC[C@H](C)[C@@H]1NC(=O)[C@@H](NC[C@H](O)[C@H](Cc2ccccc2)NC(=O)OC(C)(C)C)Cc2ccc(cc2)Oc2ccc(cc2)C[C@@H](C(=O)OC)NC1=O
Ki [8]: 15 nM

C=C[C@@H]1C[C@]1(NC(=O)[C@@H]1C[C@@H]2CN1C(=O)[C@H](C(C)(C)C)NC(=O)OCCCCCc1ccc3nc(-c4ccccc4)cc(c3c1)O2)C(=O)NS(=O)(=O)C1CC1
EC50 (Hepatitis C virus [9]): 6.7 nM | Ki [7]: < 0.016 nM

O=C1N[C@H](C(=O)N2C[C@H](O)C[C@H]2C(=O)O)CCCCCC[C@H]1CS
IC50 (Neprilysin): 0.8 nM

O=C1COc2ccc(Cl)cc2CNC(=O)[C@@H]2CCCN2C(=O)[C@@H](C2CCCCC2)NC(=O)CCCN1
Ratio IC50 [10]: > 2000 | Ratio IC50 [11]: > 2000

N#Cc1ccccc1Oc1ccc2cccc(N3CCN(Cc4cnc[nH]4)CC3=O)c2c1
IC50 [2]: 4500 nM

C=C[C@@H]1C[C@]1(NC(=O)[C@@H]1C[C@@H]2CN1C(=O)[C@H](C(C)(C)C)NC(=O)OCCCC/C=C/c1ccc3ccnc(c3c1)O2)C(=O)NS(=O)(=O)C1CC1
IC50 (Hepatitis C virus [9]): 8.7 nM | Ki [7]: 0.18 nM

O=S1(=O)NCCCNc2nc(ncc2Br)Nc2cccc1c2
IC50 (MCF7): 200 nM

CC[C@H](C)[C@H](NC(=O)[C@@H]1CCCN1C[C@H](O)[C@@H]1Cc2ccc(cc2)OCCCC(=O)N[C@@H](CC(N)=O)C(=O)N1)C(=O)N[C@H](C(N)=O)C(C)C
Ki [8]: 12 nM

C[C@@H]1CN[C@@H](C2CC2)C(=O)N(C)[C@H](C)C(=O)N[C@H](Cc2ccc(F)cc2)C(=O)NCCCc2ccccc2O1 [ULIMORELIN]
bioavailability [12]: 16% | EC50 [13]: 27 nM

CCC[C@@H]1NCCOc2ccccc2/C=C/CNC(=O)[C@@H](Cc2ccccc2)NC(=O)CN(C)C1=O
EC50 [13]: 68 nM

COc1ccc(S(=O)(=O)N(CC(C)C)C[C@@H](O)[C@@H]2CCCCCCCCOc3c(O)cccc3C(=O)N2)cc1
IC50 [8]: 300 nM | Ki [8]: 0.7 nM

O=C1Cn2c(Cl)cnc(c2=O)N[C@@H](Cc2ccccc2)CNCCCNCCOc2ccc(Cl)cc2CN1
Ki (Prothrombin): 0.09 nM | Ratio IC50 [10]: 7100 | Ratio IC50 [11]: 23000

O=C1COc2ccc(Cl)cc2CNC(=O)[C@@H]2CCCN2C(=O)[C@@H](C2CCCCC2)NC(=O)CN1
Ki (Prothrombin): 0.4 nM | Ratio IC50 [10]: > 2000 | Ratio IC50 [11]: > 2000

COc1ccc2c(c1)OCC/C=C/CCCCN(C[C@@H](O)[C@H](Cc1ccccc1)NC(=O)O[C@H]1CO[C@H]3OCC[C@H]31)S2(=O)=O
IC50 [8]: 7 nM | Ki [8]: 0.06 nM

O=C(CCCCCC1C2=NC(Cc3ccccc3)=C(O2)C(Cc2ccccc2)CCCCn2cc(nn2)CCCN1Cc1ccccc1)NO (stereo unspecified)
IC50 [1]: 6100 nM

CC[C@H](C)[C@H](NC(=O)[C@@H](NC[C@@H]1COCCCCCCCN(C(=O)[C@H](Cc2ccccc2)NC(=O)OC(C)(C)C)[C@@H](C)C(=O)N1)C(C)C)C(=O)N[C@@H](Cc1cnc[nH]1)C(=O)OC
IC50 (Renin): 2700 nM

O=C1COc2ccc(Cl)cc2CNC(=O)[C@@H]2CCCN2C(=O)[C@@H](C2CCCCC2)NC(=O)CCCCN1
Ki (Prothrombin): 0.4 nM | Ratio IC50 [10]: > 2000 | Ratio IC50 [11]: > 2000

CC[C@H](C)[C@H](NC(=O)[C@@H](C[C@H](O)[C@H](CC1CCCCC1)NC(=O)[C@@H]1Cc2cn(cn2)CC(=O)N2CCC[C@H]2C(=O)N[C@@H](Cc2ccccc2)C(=O)N1)C(C)C)C(=O)NCc1ccccn1
IC50 (Renin): 0.29 nM

CC[C@H](C)[C@H](NC(=O)[C@@H](NC[C@@H]1COCCCN(C(=O)[C@H](Cc2ccccc2)NC(=O)OC(C)(C)C)[C@@H](C)C(=O)N1)C(C)C)C(=O)N[C@@H](Cc1cnc[nH]1)C(=O)OC
IC50 (Renin): > 100000 nM

O=C1COc2ccc(Cl)cc2CNC(=O)[C@@H]2CCCN2C(=O)[C@@H](C2CCCCC2)NC(=O)CCN1
Ki (Prothrombin): 0.4 nM

CC(C)CN(C[C@@H](O)[C@H](Cc1ccccc1)NC(=O)O[C@H]1CO[C@H]2OCC[C@H]21)S(=O)(=O)c1ccc(N)cc1
Ki [8]: 0.015 nM

C[C@H]1COC(=O)[C@@H](N)CC/C=C/C[C@@H](CC(=O)N(CCO)Cc2ccccc2)C(=O)N1
Emax [14]: 30%

O=C1N[C@H](C(=O)O)CCCCCc2cccc(c2)C[C@H]1CS
IC50 (Neprilysin): 8 nM | IC50 [15]: 4 nM

CC(C)CCN(C[C@@H](O)[C@@H]1Cc2ccc(cc2)OCCCC(=O)N[C@@H](CC(N)=O)C(=O)N1)S(=O)(=O)c1ccccc1
Ki [8]: 0.6 nM

CC[C@H](C)[C@@H]1NC(=O)[C@@H](NC[C@@H](O)[C@H](Cc2ccc(O)cc2)NC[C@H](C(C)C)N2CCCC2=O)Cc2ccc(cc2)OCCCNC1=O
Ki [8]: 1.8 nM

Cc1ncn(Cc2ccc(C#N)cc2)c1CN1CC(=O)N(c2cccc(Cl)c2)C[C@@H]1CCS(C)(=O)=O
IC50 [2]: 475 nM

CC[C@H](C)[C@@H]1NCCOc2ccccc2CCCNC(=O)[C@@H](Cc2ccccc2)NC(=O)[C@@H](C)N(C)C1=O
Ki [13]: 6 nM

NC(N)=NCCC[C@@H]1NC(=O)[C@@H]2CCCN2C(=O)[C@@H](NC=O)CNC(=O)/C=C/[C@H](Cc2ccc(O)cc2)NC(=O)[C@@H](Cc2ccccc2)NC(=O)C1=O [CYCLOTHEONAMIDE A]
Ki (Prothrombin): 180 nM

COc1ccc2c(O[C@@H]3C[C@H]4C(=O)N[C@]5(C(=O)O)C[C@H]5/C=C\CCCCC[C@H](NC(=O)OC(C)(C)C)C(=O)N4C3)cc(-c3ccccc3)nc2c1
EC50 (Hepatitis C virus [9]): 7 nM | Ki (Hepatitis C virus [16]): 1 nM | Ki [17]: 1.4 nM

O=C1N[C@H](C(=O)O)CCCCCc2ccccc2C[C@H]1CS
IC50 (Neprilysin): 3 nM | IC50 [15]: 8000 nM

CC[C@H](C)[C@@H]1NC(=O)[C@@H](NC[C@@H](O)[C@@H]2Cc3ccc(cc3)OCCCCC(=O)N[C@@H](C(C)C)C(=O)N2)Cc2ccc(cc2)OCCCNC1=O
Ki [8]: 3 nM

COc1ccc2c(c1)OCC/C=C\CCCCN(C[C@@H](O)[C@H](Cc1ccccc1)NC(=O)O[C@H]1CO[C@H]3OCC[C@H]31)S2(=O)=O
IC50 [8]: 4.6 nM | Ki [8]: 0.012 nM

N#Cc1ccc2cc1Oc1ccc3c(c1)[C@@H](CC3)N1CC[C@@H](NCc3cncn3C2)C1=O
IC50 [2]: < 1.6 nM | IC50 [5]: 18000 nM

C[C@H]1NCc2cncn2Cc2ccc(C#N)c(c2)Oc2ccc3cccc(c3c2)NC1=O
IC50 [2]: 1.3 nM | IC50 [5]: 313 nM

O=C(C[C@@H]1C/C=C/CCC(=O)O[C@H](c2ccccc2)CNC1=O)NCc1ccc(Cl)cc1
Emax [14]: 91%

CC[C@H](C)[C@H](NC(=O)[C@@H](NC[C@@H]1COCCCCCN(C(=O)[C@H](Cc2ccccc2)NC(=O)OC(C)(C)C)[C@@H](C)C(=O)N1)C(C)C)C(=O)N[C@@H](Cc1cnc[nH]1)C(=O)OC
IC50 (Renin): 69000 nM

CCC[C@H](NC(=O)[C@@H]1C[C@@H](OCc2ccccc2)CN1C(=O)[C@@H](NC(=O)[C@@H](NC(=O)[C@H](CC(=O)O)NC(=O)[C@H](CC(=O)O)NC(C)=O)[C@@H](C)CC)C(C)C)C(=O)O (Ac-DDIV[Hyp](Bn)[Nva]-OH)
IC50 [7]: 7000 nM
